Data as given in ChEMBL document CHEMBL1147134, “Indium-labeled macrocyclic conjugates of naltrindole: high-affinity radioligands for in vivo studies of peripheral delta opioid receptors” (J Med Chem, 2007).

Legend:
[1] = Selectivity for mouse brain delta opioid receptor over guinea pig brain mu opioid receptor
[2] = biological target: Delta-type opioid receptor (Mus musculus, UniProt P32300); assay: Displacement of [3H]NTI from delta opioid receptor in CD1 mouse brain membranes; format: cell membranes, Membrane
Delta-type opioid receptor, sequence (P32300 whole entry): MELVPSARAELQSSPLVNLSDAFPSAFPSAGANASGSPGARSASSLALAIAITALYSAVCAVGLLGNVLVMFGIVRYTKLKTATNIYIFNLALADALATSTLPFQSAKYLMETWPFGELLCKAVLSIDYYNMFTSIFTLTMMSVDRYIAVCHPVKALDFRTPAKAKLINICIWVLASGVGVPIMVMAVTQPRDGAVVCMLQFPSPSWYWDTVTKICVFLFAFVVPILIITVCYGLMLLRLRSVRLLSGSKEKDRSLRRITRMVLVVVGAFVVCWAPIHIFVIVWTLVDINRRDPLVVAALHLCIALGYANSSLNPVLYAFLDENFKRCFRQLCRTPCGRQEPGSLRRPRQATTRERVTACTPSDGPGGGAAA

[3] = Selectivity for mouse brain delta opioid receptor over guinea pig brain kappa opioid receptor
[4] = biological target: Kappa-type opioid receptor (Cavia porcellus, UniProt P41144); assay: Displacement of [3H]U-69593 from kappa opioid receptor in guinea pig brain membranes; format: cell membranes, Membrane
Kappa-type opioid receptor, sequence (P41144 whole entry): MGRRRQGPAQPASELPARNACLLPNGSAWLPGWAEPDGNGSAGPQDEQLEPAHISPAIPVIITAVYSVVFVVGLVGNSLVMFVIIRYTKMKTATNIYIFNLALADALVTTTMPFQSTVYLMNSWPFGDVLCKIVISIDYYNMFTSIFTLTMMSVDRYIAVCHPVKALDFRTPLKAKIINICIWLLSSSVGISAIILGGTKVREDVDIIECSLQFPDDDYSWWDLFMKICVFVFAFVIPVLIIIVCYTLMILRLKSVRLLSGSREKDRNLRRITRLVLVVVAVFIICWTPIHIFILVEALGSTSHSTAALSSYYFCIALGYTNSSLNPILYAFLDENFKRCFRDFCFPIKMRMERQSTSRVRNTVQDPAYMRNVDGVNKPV

Mu-type opioid receptor = Mu-type opioid receptor (Cavia porcellus, UniProt P97266); assay: Displacement of [3H]DAMGO from mu opioid receptor in guinea pig brain membranes; format: cell membranes, Membrane
Mu-type opioid receptor, sequence (P97266 whole entry): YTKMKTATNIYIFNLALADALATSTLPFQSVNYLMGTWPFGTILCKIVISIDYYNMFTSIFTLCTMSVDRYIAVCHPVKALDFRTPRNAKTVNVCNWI

[5] = Lipophilicity, log D at pH7.4; format: physicochemical; conditions: buffer, pH 7.4

SMILES | Ratio Ki [1] | Ki [2] [µM] | Ratio Ki [3] | Ki [4] [µM] | Ki (Mu-type opioid receptor) [µM] | logD [5]
O=C(O)CN1CCN(CCCCCn2c3c(c4ccccc42)C[C@@]2(O)[C@H]4Cc5ccc(O)c6c5[C@@]2(CCN4CC2CC2)[C@@H]3O6)CCN(CC(=O)O)CCN(CC(=O)O)CC1 | 241 | 0.0002 | 131 | 0.0262 | 0.0482 | –
Oc1ccc2c3c1O[C@H]1c4[nH]c5ccccc5c4C[C@@]4(O)[C@@H](C2)N(CC2CC2)CC[C@]314 [NALTRINDOLE] | – | – | – | 0.0149 | 0.0339 | 2.41
O=C(O)CN1CCN(CCn2c3c(c4ccccc42)C[C@@]2(O)[C@H]4Cc5ccc(O)c6c5[C@@]2(CCN4CC2CC2)[C@@H]3O6)CCN(CC(=O)O)CCN(CC(=O)O)CC1 | 357 | 0.0049 | 410 | 2.01 | 1.75 | –
